Experimental data reported in patent publication US8546611B2 (priority 2008, dated 2013).

Experiments:
[1] = compared with “natural” SA
[2] = test system: erythroid cells isolated from the bone marrow of gamma-irradiated laboratory mice males; test: Radioprotective properties (micronucleus test after gamma irradiation)
white rat females = settings: in vivo
[3] = test system: patients with cardiac insufficiency
Method: The test for cardiotonic activity of product samples was performed by measuring the dynamics of alteration of the functional class of cardiac failure. The functional class can be determined quite accurately by analyzing the everyday life activities according to a specific activity scale. The authors of this technique suppose that the criteria developed by NYHA (New York Heart Association) cannot provide accurate determination of functional class, since widely used terms, such as “everyday physical activity”, “sub-everyday activity” are not specific. On the basis of multiple tests, in which patients exercised on a treadmill, the authors calculated a scale of metabolic expenses for each kind of life activity (see Goldman L., Hashimoto B., Cook F. et al., Comparative reproducibility and validity of systems for assessing cardiovascular functional class: advantages of a new specific activity scale (1981) Circulation 64 (6):1227-34). This inquiry is designed to be used by medical personnel, interviewing a patient. After calculating the sum of possible energy expenses, the functional class of the patient is determined according to the summary criteria of the specific activity scale (Table 6).
In the tests, the patient groups were formed so that the people of the same functional class were equally distributed among different groups. Severe patients (of IV functional class; those having oncological diseases or suffered myocardial infarction/stroke to the brain 60 days or less before) were not admitted to the tests. The distribution of patients among groups was governed by a random number generator. The tests were carried out by the following protocol. Each patient took 100 mg of the preparation twice per day (in the morning and after lunch) during 3 months—against the background of a standard therapy administered by a physician. […] All the samples and placebo were encoded before sending into the clinic, so none of those involved into the tests (patients, physicians, medical personnel and the manager of tests) was aware of the nature of samples.
The functional class of patients was determined several times: at the beginning of tests (before the formation of test groups) and after 30, 60 and 90 days of treatment with the test samples. The estimation was performed on the basis of the activity scale (Table 7).

Wistar rat males = test system: Wistar rat males
Method: Examples, illustrating the method invented, are presented below. […] SA is tested on rats endured an immobilization stress; the parameter tested is lymphocytic composition of blood, which is determined before and after stress in a blood smear taken from the caudal vein. […] A detailed description of the testing technique is given in Example 13.
The animals were fixed while lying flat on their back, with their legs secured. […] Blood was taken from the caudal vein: 10 μl for counting blood corpuscles and 20 μl for preparing a smear with its subsequent staining by Romanovsky-Giemsa).
First group: 10 min prior immobilization, the animals were injected (perorally, with the help of a stomach pump) with 1.5 ml of 1% starch solution. […] Blood was taken from the caudal vein at the moment of immobilization and 6 hours later, and stained blood smears were prepared to calculate the leukogram.

[4] = test system: erythroid cells isolated from the bone marrow of laboratory mice males; settings: feed with succinic acid 20 mg/kg body wt., not irradiated, norm 5.0±1.0
Method: The test for genotoxicity was performed on young laboratory mice males (18-20 g; 6 animals in each group). […] The control animals were given water.

[5] = 100 mg twice per day with standard therapy, after 30 days
[6] = 100 mg twice per day with standard therapy, after 60 days
[7] = 100 mg twice per day with standard therapy, after 90 days
[8] = 100 mg twice per day, 3 months, with standard therapy, before treatment
[9] = 6 h after immobilization, 1.5 ml of 1% succinic acid perorally 10 min prior, listed as Ex. 2
[10] = at the moment of immobilization, 1.5 ml of 1% succinic acid perorally 10 min prior, listed as Ex. 2

SMILES: O=C(O)CCC(=O)O [Example 2, succinic acid, reference compound]
- biological activity, overall conclusion in words [1]: do not possess high biological activity
- radioprotective effect, conclusion in words ([2]; gamma rays 1.3 Gy, 20 mg/kg body wt., 48 h, 20 mg/kg): no evident radioprotective effect
- Number of micronuclei per 2000 cells (radioprotective properties) ([2]; mice irradiated with gamma rays 1.3 Gy, then fed 48 h succinic acid 20 mg/kg body wt., critical value 16±2): 22.5 ± 1.0
- Total died (white rat females; female, 5000 mg/kg, 14 days): 0
- animals died, extra test with doubled dose (white rat females; 10000 mg/kg): Not a single animal died
- patients of functional class I, day 30 [3, 5]: 8
- patients of functional class II, day 30 [3, 5]: 7
- patients of functional class III, day 30 [3, 5]: 5
- patients of functional class IV, day 30 [3, 5]: 0
- patients of functional class I, day 60 [3, 6]: 8
- patients of functional class II, day 60 [3, 6]: 8
- patients of functional class III, day 60 [3, 6]: 4
- patients of functional class IV, day 60 [3, 6]: 0
- patients of functional class I, day 90 [3, 7]: 8
- patients of functional class II, day 90 [3, 7]: 8
- patients of functional class III, day 90 [3, 7]: 4
- patients of functional class IV, day 90 [3, 7]: 0
- cardiotonic properties / dynamics of functional class, conclusion in words ([3]; 100 mg twice per day, 3 months): slight positive dynamics
- patients of functional class I, day 0 [3, 8]: 8
- patients of functional class II, day 0 [3, 8]: 7
- patients of functional class III, day 0 [3, 8]: 5
- patients of functional class IV, day 0 [3, 8]: 0
- adaptogenic properties, conclusion in words (Wistar rat males; 6-hour immobilization stress, Wistar rats): slight adaptogenic properties
- Eosinophils, 6 h after (Wistar rat males; [9]): 0%
- Lymphocytes, 6 h after (Wistar rat males; [9]): 70 ± 5%
- Number of leukocytes in 1 μl of blood, 6 h after (Wistar rat males; [9]): 7700
- Segmentated cells, 6 h after (Wistar rat males; [9]): 30 ± 3%
- Eosinophils, before (Wistar rat males; [10]): 2 ± 2%
- Lymphocytes, before (Wistar rat males; [10]): 76 ± 4%
- Number of leukocytes in 1 μl of blood, before (Wistar rat males; [10]): 5700
- Segmentated cells, before (Wistar rat males; [10]): 21 ± 4%
- Number of micronuclei per 2000 cells (genotoxicity) [4]: 5.5 ± 1.0
